From patent US7291337B2, “Peptide having an affinity for gp120” (Aspion Co., Ltd., priority 2000, dated 2007)

Tests used:
gp120 = gp120 (Human immunodeficiency virus type 1 group M subtype B, UniProt P03375); conditions: peptide conjugated latex beads; for Agglutinin test, Colloidal gold conjugated gp120: protein contents 1 μg/ml; for Agglutinin test, gp120 protein: unlabelled gp120, contents 1 μg/ml
[1] = molecular target: HIV-1-gp120 (Immuno Diagnosis Co.), horseradish peroxidase labeled and enzyme unlabeled (HIV-1); assay: Scatchard plot; HRP-labeled and unlabeled gp120 added to peptide carrier
[2] = molecular target: HIV-1 kk-1 (virus; gp120 on it) (HIV-1 kk-1); assay: column absorption of KK-1 virus in human serum; p24 antigen ELISA
[3] = molecular target: HIV-1 kk-1 (virus; gp120 on it) (HIV-1 kk-1); assay: column absorption of KK-1 virus in human serum; p24 antigen ELISA of lysed bound virus (starting material 2,350)
[4] = system: HTLV-IIIB (laboratory strain); assay: Investigation of neutralizing activity of HIV-1 (CPE in MT-4 cells), HTLV-IIIB; assay type: cell-based; conditions: content to inhibit infection (CPE), 6 days, NE = no effect
Source text: (§1) Then, we used AZT as a positive control.

[5] = system: KK-1 (freshly isolated HIV); assay: Investigation of neutralizing activity of HIV-1 (CPE in MT-4 cells), KK-1; assay type: cell-based; conditions: content to inhibit infection (CPE), 6 days, NE = no effect
Source text: as §1

[6] = system: serum of hepatitis C or B patients, laboratory strain and freshly isolated strain, virus lysate conjugated colloidal gold; assay: Specificity test with peptide conjugated latex beads against viruses (Table 17); assay type: binding
Source text: The virus that was in use in this enforcement example was serum, laboratory strain and a freshly isolated strain that was gathered from patients of hepatitis C or B at final stage. Then, we used virus lysate that conjugated colloidal gold as previously.

[7] = Sample/Virus No. 1: HIV-1 IIIB, 1.0 × 10^5 TCID50
[8] = Sample/Virus No. 2: HIV-1 Lav 1, 1.0 × 10^5 TCID50
[9] = Sample/Virus No. 3: HIV-1 kk-1, 1.0 × 10^4.5 TCID50
[10] = Sample/Virus No. 4: HIV-2 Lav2, 1.0 × 10^6 TCID50
[11] = Sample/Virus No. 5: Serum of HCV patients, titer indistinct
[12] = Sample/Virus No. 6: Serum of HBV patients, titer indistinct
[13] = Sample/Virus No. 7: Hepatitis B surface antigen(HbsAg), 1.6 × 10^5 units
[14] = Sample/Virus No. 8: Valaricella Zoster valirus, 9.5 × 10^5 units
[15] = Sample/Virus No. 9: Argubella Zoster valirus (VZV), 4.9 × 10^5 units
[16] = Sample/Virus No. 10: HTLV-1 virul lysate, 1.1 × 10^5 units
[17] = Sample/Virus No. 11: human cytomegalovirus (HCMV), 5.5 × 10^5 units
[18] = Sample/Virus No. 12: Epstein-Barr virus(EB virus), 9.9 × 10^5 units

## Asp-Val-Lys-Ala-Gly [No. 1 in Table 1]
gp120
  Agglutinin test, Colloidal gold conjugated gp120: Presence
  Agglutinin test, gp120 protein: Absence

## No. 1 peptide of Table 1 (Asp-Val-Lys-Ala-Gly) bound to Sephadex 6MB
[1]
  Kd: 0.214 nM

## No. 12 peptide of Table 3 (Tyr-Tyr-Lys-Ala-Ala) bound to Sephadex 4B
[1]
  Kd: 0.497 nM

## No. 12 peptide of Table 3 (Tyr-Tyr-Lys-Ala-Ala) bound to cellulose type carrier
[2]
  percent of supplied virus absorbed: < 10%
[3]
  p24(S/CO), fraction of column absorption: 205 S/CO

## Phe-Arg-Lys-Ala-Ala (FRKAA; printed: Phe-Arg-Lys-Ala-Ala) [No. 8 in Table 3]
[4]
  Anti-HIV neutralizing activity (μg/ml) HTLV-IIIB: 125 µg/mL
[5]
  Anti-HIV neutralizing activity (μg/ml) KK-1: 125 µg/mL

## Table 1 No. 1 (DVKAG)
[6]; [7]
  Presence of agglutinin: +
[6]; [8]
  Presence of agglutinin: +
[6]; [9]
  Presence of agglutinin: +
[6]; [10]
  Presence of agglutinin: −
[6]; [11]
  Presence of agglutinin: −
[6]; [12]
  Presence of agglutinin: −
[6]; [13]
  Presence of agglutinin: −
[6]; [14]
  Presence of agglutinin: −
[6]; [15]
  Presence of agglutinin: −
[6]; [16]
  Presence of agglutinin: −
[6]; [17]
  Presence of agglutinin: −
[6]; [18]
  Presence of agglutinin: −

## Table 3 No. 6 (WWKAA)
[6]; [7]
  Presence of agglutinin: +
[6]; [8]
  Presence of agglutinin: +
[6]; [9]
  Presence of agglutinin: +
[6]; [10]
  Presence of agglutinin: −
[6]; [11]
  Presence of agglutinin: −
[6]; [12]
  Presence of agglutinin: −
[6]; [13]
  Presence of agglutinin: −
[6]; [14]
  Presence of agglutinin: −
[6]; [15]
  Presence of agglutinin: −
[6]; [16]
  Presence of agglutinin: −
[6]; [17]
  Presence of agglutinin: −
[6]; [18]
  Presence of agglutinin: −

## Trp-Trp-Lys-Ala-Ala [No. 6 in Table 3]
gp120
  Agglutinin test, Colloidal gold conjugated gp120: Presence
  Agglutinin test, gp120 protein: Absence
